Reference: patent publication US20250213627A1, “RECOMBINANT MICROORGANISM-BASED METHODS AND COMPOSITIONS FOR TREATMENT OF DISEASE” (Baylor College of Medicine, priority 2021, published 2025)

How the values were obtained:
[1] = test system: DTH reaction mediated by antigen-specific TEM lymphocytes; assay: Active delayed-type hypersensitivity (DTH) reaction against ovalbumin in the ear; format: in vivo, rat
Method: Then, it was assessed if LrS235 gavage could reduce a delayed-type hypersensitivity (DTH) reaction in the ear of rats, a local autoinflammation mediated by antigen-specific TEM lymphocytes. […] In contrast, treatment with LrGusA, capsules filled with ShK-235 or gelatin, and supernatants from the culture of the LrS235 had no effects on inflammation.
Induction and monitoring of an active delayed-type hypersensitivity reaction. Male and female rats were immunized in the flanks with 200 μl of a 1:1 emulsion of ovalbumin (Sigma, St. Louis, MO) in complete Freund's adjuvant (Difco/Becton Dickinson, Franklin Lakes, NJ)(25). After 7 days, under isoflurane anesthesia, the rats were challenged with ovalbumin dissolved in saline in the pinna of one ear; the collateral ear was injected with saline (49). Rats received either a single subcutaneous injection of 0.1 mg/kg ShK-235 or P6N vehicle, a single oral gavage of 1×10^9 cfus LrS235 or LrGusA, oral gavage of 1 ml supernatant of LrS235, or a capsule filled with ShK-235 or gelatin immediately before the ear challenge. The DTH reaction was measured 24 hours post-challenge as the thickness of the ear using a spring-loaded micrometer (Mitutoyo, Japan) and ear inflammation was determined by comparing the ear thickness of the ovalbumin-challenged with the saline-challenged ear from each (49). The animals were euthanized after the ear measurements.

[2] = Pharmacokinetics following oral or subcutaneous administration in healthy and CIA rats; conditions: rat, in vivo
Method: Pharmacokinetics following oral or subcutaneous administration of LrS235. Pharmacokinetics following oral or subcutaneous administration of LrS235 are conducted to determine the efficacy of ShK-235 entry into the circulation after its delivery via LrS235, an oral capsule, or subcutaneous injection, and the duration for which the peptide can be detected in the blood after a single bolus or repeated administration to rats with the CIA model of RA. The circulating levels of ShK-235 are quantified with two complementary and well-established techniques, mass spectrometry and single-cell patch-clamp, as the inventors and others have done with ShK, ShK analogs, and other Kv1.3 channel modulators^6,16,37,47-49,65. Tandem liquid chromatography triple quadrupole mass spectrometry (LC-QQQ-MS) is commonly used to rapidly detect and quantify small molecules and peptides for pharmacokinetics. As a complement, single-cell patch-clamp allows for the detection and quantification of functional peptide. This quantitative method (FIG. 9) has a low pM detection limit for the functional peptide. This technique has been validated and used to detect ShK-235 in the circulation of rats administrated the peptide via a capsule or via LrS235 (FIG. 8). […]

[3] = Bioavailability and pharmacokinetics of ShK-235 in circulation of healthy rats; format: in vivo, rat
Method: To test whether the intestinal environment interferes with LrS235 secretion of ShK-235, or prevents it from crossing into the circulation, healthy rats were gavaged with a single bolus of 1×10^9 CFU of either LrGusA or LrS235, both after SppIP induction, and 6 hours later, sera was collected and the ability of serum samples to block Kv1.3 channels tested by whole-cell patch-clamp.
Sera was taken at various timepoints ranging from 3 hours to 72 hours after the single bolus of LrS235. Peak levels of ShK-235 were detected 6 hours after LrS235 delivery, with the range of functional activity from 3 hours to 48 hours post-gavage (FIG. 8C).
Bioavailability and pharmacokinetics of ShK-235 after oral delivery. Male rats received a single oral gavage of either 1×10^9 cfus LrS235 or an enteric-coated capsule filled with ShK-235. Blood was collected via the saphenous vein at the different time points indicated in the figure, the last blood draw being a terminal cardiac puncture (48). Serum samples were assayed for Kv1.3 block by patch-clamp electrophysiology.

SMILES: CC[C@H](C)[C@@H]1NC(=O)[C@H](CO)NC(=O)[C@H](Cc2c[nH]cn2)NC(=O)[C@H](CCCCN)NC(=O)[C@@H]2CSSC[C@@H]3NC(=O)[C@H]([C@@H](C)O)NC(=O)[C@H](CCCCN)NC(=O)[C@H](CCCNC(=N)N)NC(=O)[C@H](CSSC[C@H](NC(=O)[C@H](CCCNC(=N)N)NC(=O)[C@H](CO)NC(=O)[C@H](CCCCN)NC(=O)[C@@H]4CCCN4C(=O)[C@H]([C@@H](C)CC)NC(=O)[C@H]([C@@H](C)O)NC(=O)[C@H](CC(=O)O)NC(=O)[C@H]([C@@H](C)CC)NC(=O)[C@@H](NC(=O)[C@H](CO)NC(=O)[C@@H](N)CCCNC(=N)N)CSSC[C@@H](C(=O)N[C@@H](C)C(=O)O)NC(=O)[C@H]([C@@H](C)O)NC(=O)CNC3=O)C(=O)N[C@@H]([C@@H](C)O)C(=O)N[C@@H](C)C(=O)N[C@@H](Cc3ccccc3)C(=O)N[C@@H](CCCCN)C(=O)N2)NC(=O)[C@H](Cc2ccccc2)NC(=O)[C@H](CO)NC(=O)[C@H](CC(C)C)NC(=O)[C@H](CCCNC(=N)N)NC(=O)[C@H](Cc2ccc(O)cc2)NC(=O)[C@H](CCCCN)NC1=O [ShK-235]
- Effect on ear inflammation ([1]; oral enteric-coated capsule filled with ShK-235): no effects
- Reduction of ear inflammation compared with vehicle control ([1]; single subcutaneous injection 0.1 mg/kg): 58%
- Detection of ShK-235 in the circulation [2]: detected
- Serum levels of ShK-235 after enteric-coated capsule ([3]; oral ACRYL-EZE coated capsule filled with 0.3 mg ShK-235): no measurable serum levels
- level at time molar ([3]; rat, in vivo, injection of 0.1 mg/kg, read-out: Level detected in the circulation after injection): 0.6 to 0.8 nM
